Reference: patent publication US20210290680A1, “METHODS AND COMPOSITIONS FOR MODULATING CELLULAR AGING” (Dorian Therapeutics, Inc., priority 2019, published 2021)

Tests used:
[1] = test system: primary T cells; test: Stem cell memory T cell phenotype by flow cytometry (CD45RA+CD62L+); assay type: cell-based, human; details: for stem cell frequency (Tscm phenotype ratio), fold increase over Control: day 20, gated on CD8
Procedure: Primary T cells were activated as described (Example 3), transduced with a lentivirus encoding for either a shUSP16 or a non-targeting shRNA (Ctrl) and sorted for GFP on day 8. Cells were cultured in the presence of IL-2 and their phenotype was analyzed at day 20. Cells were stained for CD4-PerCP-5.5 or CD8-BV510, CD62L-Allophycocyanin, CD45RA-BV510 or PE-Cy7 (Biolegend). Naïve or stem cell memory T cells (TNa/SCM) were identified as Sytox^− GFP^+CD45RA^+CD62L^+. Number of TNa/SCM was calculated as (#CD4 or CD8 T cells*TNa/SCMpercentage)/100. Flow cytometry was performed on the MACQuant (Myltenyi Biotec) and the data analyzed with FlowJo (shCtrl vs shUSP CD4: 0.4978 vs 0.7915, p=0.0673 and CD8: 2.469 vs 4.984, p=0.00392, n=7). Downregulation of USP16 expression increases the number of CD4+CD45RA+CD62L+(FIG. 11A) and CD8+CD45RA+CD62L+(FIG. 11B) cells in culture by 1.7 (p=0.0205) and 1.9 (p=0.0097) times, respectively.
(§1) Primary T cells were activated as described (Example 3), transduced with a lentivirus encoding either a shUSP16 #1, shUSP16 #2 or a non-targeting shRNA (shCtrl) and cells were selected with puromycin at day 6. At day 15 cell were collected and analyzed by qPCR for the expression of LEF1 (FIG. 16A) and TCF7 (FIG. 16B), downstream regulators of the WNT pathway. At day 20, cells were stained for CD4-PE, CD8-BV510, CD62L-Allophycocyanin and CD45RA-APC-Cy7 (Biolegend). Stem cell memory T cells (Tscm) were identified as Sytox^− GFP^+CD45RA^+CD62L^+, central memory T cells (Tcm) as Sytox^−GFP^+CD45RA^−CD62L^+, effector memory T cells (Tem) as Sytox^−GFP^+CD45RA^−CD62L^−, and terminal effector T cell (Teff) as Sytox^−GFP^+CD45RA^+CD62L^− (FIG. 17A). Cells were gated on the CD8 population. The specific increase of Tscm was shown as phenotype ratio (FIG. 17B).
Primary T cells were activated as described (Example 3). At Day 6 post-activation, dynabeads were removed and T cells electroporated using the Neon Transfection System (ThermoFisher) with a 2.5:1 ratio sgRNA:Cas9. The experiment was performed following the protocol optimized for primary T cell by Synthego (CRISPR Editing Human Primary CD4+ T cells with RNPs using Neon Electroporation Protocol, 2018 version). The sgRNA used are the following: gUSP16 #1 5′-[…]-3′ (SEQ ID NO: 10) and gSynthego that comprises 3 different sgRNAs (gRNA-A: 5′-[…] 3′ (SEQ ID NO: 11); gRNA-B: 5′-[…]-3′ (SEQ ID NO: 12); gRNA-C: 5′-[…]-3′ (SEQ ID NO: 13)). Control T cells, identified as Mock, were electroporated but no Cas9:sgRNA mixture was added. […] At day 15 post-activation, cells were stained for CD4-PE, CD8-BV510, CD62L-Allophycocyanin and CD45RA-APC-Cy7 (Biolegend). Stem cell memory T cells (Tscm) were identified as Sytox^−GFP^+CD45RA^+CD62L^+ and graphed as ratio compared to mock cells (FIG. 22). The experiment was repeated using primary T cells obtained from buffy coats of 2 different healthy donors.
Primary T cells were activated as described (Example 3), transduced with a lentivirus encoding for either a CD19.CAR or a GD2.CAR co-expressing shUSP16 #1, shUSP16 #2 or a scrambled shRNA (Control). At day 15, GD2.CAR and CD19.CAR T cells were stained for EGFR-AF488 (R&D), CD3-PE, CD8-BV510, CD62L-Allophycocyanin and CD45RA-APC-Cy7 (Biolegend). Stem cell memory T cells (Tscm) were identified as FITC^+CD45RA^+CD62L^+, central memory T cells (Tcm) as FITC^+CD45RA^−CD62L^+, effector memory T cells (Tem) as FITC^+CD45RA^−CD62L^−, and terminal effector T cell (Teff) as FITC^+CD45RA^+CD62L^−. Cells were gated on the CD8 population. The specific increase of Tscm was shown as phenotype ratio (FIGS. 28A and 28B).

[2] = test system: LEF1; test: qPCR of WNT pathway regulator LEF1; assay type: cell-based, human; details: for LEF1 expression, fold change vs Control: CD19.CAR; for LEF1 expression, fold change vs Control / LEF1 expression vs Control: day 15, n=4; for LEF1 expression vs Control: GD2.CAR
Excerpt: as §1
Primary T cells were activated as described (Example 3), transduced with a lentivirus encoding for either a CD19.CAR or a GD2.CAR co-expressing shUSP16 #1, shUSP16 #2 or a scrambled shRNA (Control). Fifteen days post-activation, T cells were collected and qPCR performed. TaqMan probes detecting CDKN1A, CDKN2A (FIGS. 26A and 26B) (fold change GD2.CAR (n=4): CDKN1A Control vs shUSP #1: 0.4360, p<0.0001, and Control vs shUSP16 #2: 3.036, p=0.004 respectively. Fold change CD19.CAR (n=4): CDKN2a, CDKN1A Control vs shUSP #1: 0.6906, p=0.0026; 0.7228, p=0.0297 and Control vs shUSP16 #2: 0.8385, p=0.2325; 0.7017, p=0.0021), TCF7, LEF1, and Axin-2 (FIGS. 27A and B) were analyzed in GD2.CAR and CD19.CAR-expressing cells, respectively. ACTB was used as internal control. (GD2.CAR (n=4) TCF7, LEF1 and Axin-2: Control vs shUSP #1: 1.914 p=0.0512; 1.795 p=0.0323; 3.269 p=0.15 and Control vs shUSP16 #2: 1.284 p=0.0494; 1.718 p=0.0586; 2.035p=0.235, respectively. Fold change CD19.CAR (n=4): TCF7, LEF1 and Axin-2: Control vs shUSP #1: 1.528, p=0.0277; 1.82, p=0.0449; 1.998, p=0.031 and Control vs shUSP16 #2: 1.18, p=0.2002; 1.579, p=0.0632; 1.261, p=0.2382). USP16 downregulation in CAR-T cells results in a decreased expression of senescence markers and an increase in the expression of genes associated with the activation/increased signaling of the WNT pathway, indicating its importance in delaying cellular senescence and increasing self-renewal.

For “shUSP16 #2: shRNA targeting USP16, 5′-TATATCAGTTCACCCGTAAT-3′ (SEQ ID NO: 9), pSIH backbone or co-expressed in CAR plasmid”, the “stem cell frequency (Tscm), fold change vs Control” value ([1]; CD19.CAR, day 15, n=5) was 2.273, the “stem cell frequency (Tscm), fold change vs Control” value ([1]; GD2.CAR, day 15, n=4) was 1.383 and the “stem cell frequency (Tscm phenotype ratio), fold increase over Control” value [1] was 2.63. The “LEF1 expression, fold change vs Control” value [2] was 1.579 and the “LEF1 expression vs Control” value [2] was 1.718.

For “shUSP16 #1: shRNA targeting USP16, 5′-GACTGTAAGACTGACAATAAA-3′ (SEQ ID NO: 8), pSIH backbone or co-expressed in CAR plasmid”, the “stem cell frequency (Tscm), fold change vs Control” value ([1]; CD19.CAR, day 15, n=5) was 1.994, the “stem cell frequency (Tscm), fold change vs Control” value ([1]; GD2.CAR, day 15, n=4) was 1.347 and the “stem cell frequency (Tscm phenotype ratio), fold increase over Control” value [1] was 2.022. The “LEF1 expression, fold change vs Control” value [2] was 1.82, the “LEF1 expression vs Control” value [2] was 1.795 and the “LEF1 expression, fold increase over Control” value ([2]; primary T cells, day 15) was 1.650.
